Reference: patent US4757049A, “Process for using endogenous enkephalins and endorphins to stimulate the immune system of patients with aids” (TNI Pharmaceuticals, Inc., priority 1986, dated 1988)

Columns and labels:
L1210 tumor cells = assay: Survival of BDF1 mice inoculated with 1×10^6 L1210 cells, cis-platin with and without methionine-enkephalin; assay type: in vivo, mouse
Experimental: In order to test for any synergistic effect of using an endogenous enkephalin with a known chemo-therapeutic agent, a study involving the inoculation of groups of mice with massive doses (1×10^6) of L1210 tumor cells was performed in a manner analogous to the previous examples transferred in RPMI 1640 at pH 7.

[1] = tested on: phenylalanyl-t RNA synthetase; conditions: Laidow et al, J.B.C. 255 (1980); cited from earlier work

N.N.[Cl][Pt][Cl] [Cis-platin, cis-platin]
Median Day of Death ED50 (L1210 tumor cells; 1×10^6 cells, cis-platin 2 mg/Kg, Met-enkephalin 30 mg/Kg s.c.): 10 days | dead/tested, cumulative (L1210 tumor cells; 1×10^6 cells, cis-platin 2 mg/Kg, Met-enkephalin 30 mg/Kg s.c., day 9): 3/20 | Median Day of Death ED50 (L1210 tumor cells; 1×10^6 cells, cis-platin 4 mg/Kg, Met-enkephalin 30 mg/Kg s.c.): 10 days | dead/tested, cumulative (L1210 tumor cells; 1×10^6 cells, cis-platin 8 mg/Kg single dose, Met-enkephalin 30 mg/Kg s.c., day 9): 2/20 | Median Day of Death ED50 (L1210 tumor cells; 1×10^6 cells, cis-platin 8 mg/Kg, Met-enkephalin 30 mg/Kg s.c.): 12 days | dead/tested, cumulative (L1210 tumor cells; cis-platin 2 mg/Kg, Met-enkephalin 30 mg/Kg s.c., day 10): 13/20 | dead/tested, cumulative (L1210 tumor cells; cis-platin 2 mg/Kg, Met-enkephalin 30 mg/Kg s.c., day 11): 14/20 | dead/tested, cumulative (L1210 tumor cells; cis-platin 2 mg/Kg, Met-enkephalin 30 mg/Kg s.c., day 12): 15/20 | dead/tested, cumulative (L1210 tumor cells; cis-platin 2 mg/Kg, Met-enkephalin 30 mg/Kg s.c., day 13): 17/20 | dead/tested, cumulative (L1210 tumor cells; cis-platin 2 mg/Kg, Met-enkephalin 30 mg/Kg s.c., day 14): 19/20 | dead/tested, cumulative (L1210 tumor cells; cis-platin 4 mg/Kg, Met-enkephalin 30 mg/Kg s.c., day 11): 10/20 | dead/tested, cumulative (L1210 tumor cells; cis-platin 4 mg/Kg, Met-enkephalin 30 mg/Kg s.c., day 12): 15/20 | dead/tested, cumulative (L1210 tumor cells; cis-platin 4 mg/Kg, Met-enkephalin 30 mg/Kg s.c., day 13): 19/20 | dead/tested, cumulative (L1210 tumor cells; cis-platin 4 mg/Kg, Met-enkephalin 30 mg/Kg s.c., day 15): 20/20 | dead/tested, cumulative (L1210 tumor cells; cis-platin 8 mg/Kg, Met-enkephalin 30 mg/Kg s.c., day 12): 4/20 | dead/tested, cumulative (L1210 tumor cells; cis-platin 8 mg/Kg, Met-enkephalin 30 mg/Kg s.c., day 13): 7/20 | dead/tested, cumulative (L1210 tumor cells; cis-platin 8 mg/Kg, Met-enkephalin 30 mg/Kg s.c., day 14): 12/20 | dead/tested, cumulative (L1210 tumor cells; cis-platin 8 mg/Kg, Met-enkephalin 30 mg/Kg s.c., day 15): 16/20 | dead/tested, cumulative (L1210 tumor cells; cis-platin 8 mg/Kg, Met-enkephalin 30 mg/Kg s.c., day 16): 18/20 | dead/tested, cumulative (L1210 tumor cells; cis-platin 8 mg/Kg, day 18): 19/20 | dead/tested, cumulative (L1210 tumor cells; cis-platin 8 mg/Kg, day 20): 20/20

beta-endorphin
effect on phenylalanyl-t RNA synthetase [1]: inhibit
